Source: publication PMC3242434 (Bioorganic & medicinal chemistry letters, 2011)

How the values were obtained:
Hsp90 = assay: Western blot analyses of Hsp90 client protein degradation in MCF-7 cells; assay type: cell-based
[1] = tested on: MCF7 breast cancer cell-line; assay: Anti-proliferative activity against MCF7 breast cancer cell-line; assay type: cell-based; details: Homo sapiens, MCF7, read-out: IC50 against MCF-7

## COc1ccc(Cc2ccc3cc(NC(=O)c4ccc(OC(C)=O)c(CC=C(C)C)c4)c(=O)oc3c2C)cc1 [Compound 43]
Hsp90
  Hsp90 client protein degradation: client protein degradation was observed
  Hsp90 induction (heat shock response): no Hsp90 induction was seen

## COc1ccc(Cc2ccc3cc(NC(=O)c4ccc(O)c(CC=C(C)C)c4)c(=O)oc3c2C)cc1OC [Compound 48]
[1]
  IC50: ~13 µM

## COc1ccc(Oc2ccc3cc(NC(=O)c4ccc(O)c(CC=C(C)C)c4)c(=O)oc3c2C)cc1 [Compound 14]
Hsp90
  Hsp90 client protein degradation: client protein degradation was observed
  Hsp90 induction (heat shock response): no Hsp90 induction was seen
